In patent publication US20210122730A1, “GLUCOCORTICOID RECEPTOR MODULATORS” (ORIC Pharmaceuticals, Inc., priority 2017, published 2021):

Columns and labels:
GR = biological target: T1, GR (Homo sapiens, UniProt P04150); test: In Vitro GR Luciferase Reporter Assay (antagonist mode, CHO-K1-GR-MMTV-Luc reporter cells); assay type: cell-based; conditions: antagonist mode, 10 nM Dexamethasone
T1 construct: expressed in transfected cells; host or cells: CHO-K1
T1 sequence (P04150 1-777): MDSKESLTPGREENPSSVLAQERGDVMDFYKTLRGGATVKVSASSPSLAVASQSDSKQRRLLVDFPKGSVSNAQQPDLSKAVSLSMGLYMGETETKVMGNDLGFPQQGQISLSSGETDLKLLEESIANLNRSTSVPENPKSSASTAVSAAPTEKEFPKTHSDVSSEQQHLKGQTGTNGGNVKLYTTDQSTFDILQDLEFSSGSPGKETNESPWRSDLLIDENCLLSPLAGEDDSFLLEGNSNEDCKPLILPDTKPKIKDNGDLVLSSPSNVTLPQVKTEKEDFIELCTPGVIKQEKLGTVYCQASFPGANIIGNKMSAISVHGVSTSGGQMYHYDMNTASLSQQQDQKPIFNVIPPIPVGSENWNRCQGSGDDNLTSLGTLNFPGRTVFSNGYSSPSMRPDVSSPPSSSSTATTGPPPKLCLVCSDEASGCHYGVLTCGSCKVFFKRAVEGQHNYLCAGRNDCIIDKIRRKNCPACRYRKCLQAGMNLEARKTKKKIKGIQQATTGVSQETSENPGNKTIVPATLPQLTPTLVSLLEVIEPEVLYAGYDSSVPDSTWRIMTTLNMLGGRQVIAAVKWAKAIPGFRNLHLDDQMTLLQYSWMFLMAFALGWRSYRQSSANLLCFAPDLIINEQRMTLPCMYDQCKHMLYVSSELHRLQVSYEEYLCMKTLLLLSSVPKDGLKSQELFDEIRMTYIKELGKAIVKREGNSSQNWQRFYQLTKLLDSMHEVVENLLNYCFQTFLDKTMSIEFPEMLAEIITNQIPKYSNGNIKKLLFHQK
Summary of the method: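 Antagonist mode: compounds (8 serial 1:5 dilutions) added to GR-MMTV-luciferase CHO-K1 reporter cells co-exposed to 10 nM dexamethasone final, in phenol red-free DMEM plus 10% CSS. After roughly 18-24 h at 37° C, OneGlo luminescence read and IC50 calculated.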

CYP2C8 = biological target: T2, CYP2C8 (Homo sapiens, UniProt P10632); test: CYP Inhibition Assay (CYP2C8, human liver microsomes, paclitaxel substrate); assay type: in vitro ADME; conditions: pH 7.4; pooled human liver microsomes 0.1 mg/mL, probe substrate paclitaxel
T2 construct: Pooled human microsomes were obtained from Sekisui XenoTech, KS; tissue Sekisui XenoTech, KS; host or cells: pooled human liver microsomes
T2 sequence (P10632 1-490): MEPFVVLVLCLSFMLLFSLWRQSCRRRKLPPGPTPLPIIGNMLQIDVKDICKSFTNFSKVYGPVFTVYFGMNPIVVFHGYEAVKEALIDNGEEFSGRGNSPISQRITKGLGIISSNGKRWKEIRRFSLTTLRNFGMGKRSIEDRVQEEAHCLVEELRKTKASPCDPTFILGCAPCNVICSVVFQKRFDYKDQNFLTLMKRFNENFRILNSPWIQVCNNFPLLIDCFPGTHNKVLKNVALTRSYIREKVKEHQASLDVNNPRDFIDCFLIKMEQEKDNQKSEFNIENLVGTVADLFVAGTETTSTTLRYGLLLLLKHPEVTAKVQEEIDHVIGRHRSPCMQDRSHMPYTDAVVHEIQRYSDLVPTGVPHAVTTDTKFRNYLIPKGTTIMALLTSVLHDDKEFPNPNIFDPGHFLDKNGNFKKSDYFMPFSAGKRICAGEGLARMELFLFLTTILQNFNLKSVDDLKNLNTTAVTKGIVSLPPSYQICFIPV
Summary of the method: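 CYP2C8 activity read as 6α-hydroxypaclitaxel formation by LC-MS/MS, with % inhibition versus vehicle control. Reactions ran 5 min at 37° C, pH 7.4 phosphate buffer, 0.1 mg/mL pooled human liver microsomes, 1 mM NADPH, duplicate wells.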

`CCN([C@H]1CCC2=Cc3c(cnn3-c3ccc(F)cc3)C[C@]2(C(=O)c2cc(C(F)(F)F)ccn2)C1)S(=O)(=O)C1CCCC1` [Example 243, N-ethyl-N-((4aS,6S)-1-(4-fluorophenyl)-4a-(4-(trifluoromethyl)picolinoyl)-4,4a,5,6,7,8-hexahydro-1H-benzo[f]indazol-6-yl)cyclopentanesulfonamide] was tested, and the IC50 (GR) was ≤ 100 nM and the inhibition at 5 min (CYP2C8) was 50 to 75%.
With `Cn1ccc(S(=O)(=O)N(CC2CC2)[C@H]2CCC3=Cc4c(cnn4-c4ccc(F)cc4)C[C@]3(C(=O)c3cc(F)ccn3)C2)n1` [Example 244, N-(cyclopropylmethyl)-N-((4aS,6S)-1-(4-fluorophenyl)-4a-(4-fluoropicolinoyl)-4,4a,5,6,7,8-hexahydro-1H-benzo[f]indazol-6-yl)-1-methyl-1H-pyrazole-3-sulfonamide] the IC50 (GR) was ≤ 100 nM and the inhibition at 5 min (CYP2C8) was 75 to 90%.
In the case of `Cn1ccc(S(=O)(=O)N(CC2CC2)[C@H]2CCC3=Cc4c(cnn4-c4ccc(F)cc4)C[C@]3(C(=O)c3cc(Cl)ccn3)C2)n1` [Example 245, N-((4aS,6S)-4a-(4-chloropicolinoyl)-1-(4-fluorophenyl)-4,4a,5,6,7,8-hexahydro-1H-benzo[f]indazol-6-yl)-N-(cyclopropylmethyl)-1-methyl-1H-pyrazole-3-sulfonamide], the IC50 (GR) is reported as ≤ 100 nM and the inhibition at 5 min (CYP2C8) is reported as 50 to 75%.
With `Cn1cc(S(=O)(=O)N(CC(C)(C)O)[C@H]2CCC3=Cc4c(cnn4-c4ccc(F)cc4)C[C@]3(C(=O)c3cc(Cl)ccn3)C2)cn1` [Example 246, N-((4aS,6S)-4a-(4-chloropicolinoyl)-1-(4-fluorophenyl)-4,4a,5,6,7,8-hexahydro-1H-benzo[f]indazol-6-yl)-N-(2-hydroxy-2-methylpropyl)-1-methyl-1H-pyrazole-4-sulfonamide] the IC50 (GR) was ≤ 100 nM and the inhibition at 5 min (CYP2C8) was 25 to 50%.
For `O=C(c1cc(C(F)F)ccn1)[C@]12Cc3cnn(-c4ccc(F)cc4)c3C=C1CC[C@H](N(C1CC1)S(=O)(=O)c1ccc(F)cc1)C2` [Example 247, N-cyclopropyl-N-((4aS,6S)-4a-(4-(difluoromethyl)picolinoyl)-1-(4-fluorophenyl)-4,4a,5,6,7,8-hexahydro-1H-benzo[f]indazol-6-yl)-4-fluorobenzenesulfonamide], the IC50 (GR) was ≤ 100 nM and the inhibition at 5 min (CYP2C8) was 50 to 75%.
`Cn1cc(S(=O)(=O)N(CC(F)(F)F)[C@H]2CCC3=Cc4c(cnn4-c4ccc(F)cc4)C[C@]3(C(=O)c3ncc(C(F)(F)F)s3)C2)cn1` [Example 250, N-((4aS,6S)-1-(4-fluorophenyl)-4a-(5-(trifluoromethyl)thiazole-2-carbonyl)-4,4a,5,6,7,8-hexahydro-1H-benzo[f]indazol-6-yl)-1-methyl-N-(2,2,2-trifluoroethyl)-1H-pyrazole-4-sulfonamide] was tested, and the IC50 (GR) was ≤ 100 nM and the inhibition at 5 min (CYP2C8) was 50 to 75%.
`Cn1ccc(S(=O)(=O)N(CC2(O)CC2)[C@H]2CCC3=Cc4c(cnn4-c4ccc(F)cc4)C[C@]3(C(=O)c3ncc(C(F)(F)F)s3)C2)n1` [Example 251, N-((4aS,6S)-1-(4-fluorophenyl)-4a-(5-(trifluoromethyl)thiazole-2-carbonyl)-4,4a,5,6,7,8-hexahydro-1H-benzo[f]indazol-6-yl)-N-((1-hydroxycyclopropyl)methyl)-1-methyl-1H-pyrazole-3-sulfonamide] was tested, and the IC50 (GR) was ≤ 100 nM and the inhibition at 5 min (CYP2C8) was 50 to 75%.
With `O=C(c1cc(F)ccn1)[C@]12Cc3cnn(-c4ccc(F)cc4)c3C=C1CC[C@H](N(CC1(O)CC1)S(=O)(=O)c1ccc(F)cc1)C2` [Example 254, 4-fluoro-N-((4aS,6S)-1-(4-fluorophenyl)-4a-(4-fluoropicolinoyl)-4,4a,5,6,7,8-hexahydro-1H-benzo[f]indazol-6-yl)-N-((1-hydroxycyclopropyl)methyl) benzenesulfonamide] the IC50 (GR) was ≤ 100 nM and the inhibition at 5 min (CYP2C8) was 50 to 75%.
With `Cn1ccc(S(=O)(=O)N(CC2(O)CC2)[C@H]2CCC3=Cc4c(cnn4-c4ccc(F)cc4)C[C@]3(C(=O)c3cc(F)ccn3)C2)n1` [Example 255, N-((4aS,6S)-1-(4-fluorophenyl)-4a-(4-fluoropicolinoyl)-4,4a,5,6,7,8-hexahydro-1H-benzo[f]indazol-6-yl)-N-((1-hydroxycyclopropyl)methyl)-1-methyl-1H-pyrazole-3-sulfonamide] the IC50 (GR) was ≤ 100 nM and the inhibition at 5 min (CYP2C8) was 50 to 75%.
`Cn1ccc(S(=O)(=O)N(CC2(O)CC2)[C@H]2CCC3=Cc4c(cnn4-c4ccc(F)cc4)C[C@]3(C(=O)c3cc(Cl)ccn3)C2)n1` [Example 257, N-((4aS,6S)-4a-(4-chloropicolinoyl)-1-(4-fluorophenyl)-4,4a,5,6,7,8-hexahydro-1H-benzo[f]indazol-6-yl)-N-((1-hydroxycyclopropyl)methyl)-1-methyl-1H-pyrazole-3-sulfonamide] was tested, and the IC50 (GR) was ≤ 100 nM and the inhibition at 5 min (CYP2C8) was 50 to 75%.
In the case of `Cn1ccc(S(=O)(=O)N(C2CC2)[C@H]2CCC3=Cc4c(cnn4-c4ccc(F)cc4)C[C@]3(C(=O)c3cc(C(F)F)ccn3)C2)n1` [Example 258, N-cyclopropyl-N-((4aS,6S)-4a-(4-(difluoromethyl)picolinoyl)-1-(4-fluorophenyl)-4,4a,5,6,7,8-hexahydro-1H-benzo[f]indazol-6-yl)-1-methyl-1H-pyrazole-3-sulfonamide], the IC50 (GR) is reported as ≤ 100 nM and the inhibition at 5 min (CYP2C8) is reported as 50 to 75%.
In the case of `Cn1ccc(S(=O)(=O)N(C2CC2)[C@H]2CCC3=Cc4c(cnn4-c4ccc(F)cc4)C[C@]3(C(=O)c3ncc(Cl)cn3)C2)n1` [Example 259, N-((4aS,6S)-4a-(5-chloropyrimidine-2-carbonyl)-1-(4-fluorophenyl)-4,4a,5,6,7,8-hexahydro-1H-benzo[f]indazol-6-yl)-N-cyclopropyl-1-methyl-1H-pyrazole-3-sulfonamide], the IC50 (GR) is reported as ≤ 100 nM and the inhibition at 5 min (CYP2C8) is reported as 25 to 50%.
`Cn1cc(S(=O)(=O)N(CC(F)(F)F)[C@H]2CCC3=Cc4c(cnn4-c4ccc(F)cc4)C[C@]3(C(=O)c3cc(F)ccn3)C2)cn1` [Example 260, N-((4aS,6S)-1-(4-fluorophenyl)-4a-(4-fluoropicolinoyl)-4,4a,5,6,7,8-hexahydro-1H-benzo[f]indazol-6-yl)-1-methyl-N-(2,2,2-trifluoroethyl)-1H-pyrazole-4-sulfonamide] was tested, and the IC50 (GR) was ≤ 100 nM and the inhibition at 5 min (CYP2C8) was 50 to 75%.
With `Cn1ccnc1S(=O)(=O)N(C1CC1)[C@H]1CCC2=Cc3c(cnn3-c3ccc(F)cc3)C[C@]2(C(=O)c2cc(C(F)(F)F)ccn2)C1` [Example 261, N-cyclopropyl-N-((4aS,6S)-1-(4-fluorophenyl)-4a-(4-(trifluoromethyl)picolinoyl)-4,4a,5,6,7,8-hexahydro-1H-benzo[f]indazol-6-yl)-1-methyl-1H-imidazole-2-sulfonamide] the IC50 (GR) was ≤ 100 nM and the inhibition at 5 min (CYP2C8) was 50 to 75%.
`Cn1ncc(S(=O)(=O)N(C2CC2)[C@H]2CCC3=Cc4c(cnn4-c4ccc(F)cc4)C[C@]3(C(=O)c3cc(Cl)ccn3)C2)n1` [Example 262, N-((4aS,6S)-4a-(4-chloropicolinoyl)-1-(4-fluorophenyl)-4,4a,5,6,7,8-hexahydro-1H-benzo[f]indazol-6-yl)-N-cyclopropyl-2-methyl-2H-1,2,3-triazole-4-sulfonamide] was tested, and the IC50 (GR) was ≤ 100 nM and the inhibition at 5 min (CYP2C8) was 50 to 75%.
`Cn1ncc(S(=O)(=O)N(C2CC2)[C@H]2CCC3=Cc4c(cnn4-c4ccc(F)cc4)C[C@]3(C(=O)c3cc(F)ccn3)C2)n1` [Example 263, N-cyclopropyl-N-((4aS,6S)-1-(4-fluorophenyl)-4a-(4-fluoropicolinoyl)-4,4a,5,6,7,8-hexahydro-1H-benzo[f]indazol-6-yl)-2-methyl-2H-1,2,3-triazole-4-sulfonamide] was tested, and the IC50 (GR) was ≤ 100 nM and the inhibition at 5 min (CYP2C8) was 75 to 90%.
